Results reported in PubChem BioAssay AID2060908 (Molecular Pharmacology Branch, DTP, NCI, 2025).
pIC50: −log10 of the molar value. Several values for one entry are separate records, joined by “and”; a condition that tells them apart may be missing. Identical values can stand only once.

Test system: 186277-243-T-J2-PDC complex spheroids, viability
Test: Anticancer human tumor 186277-243-T-J2-PDC patient-derived colon adenocarcinoma cell line growth inhibition [RAS]
Conditions: for pIC50: curve of first compound; for viability, T/C: stronger effect = lower value; active = viability on the fitted dose curve at most 10% of control; inactive = the rest
Method in brief: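 Agents were tested in combination matrices in half-log decrements from a top concentration at or near clinical Cmax (10 microM if undetermined). Targets were multi-cell spheroids of tumour lines plus HUVEC and MSC stromal cells.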

[1] = second compound 0.000949 µM, first compound 0.0316 µM
[2] = second compound 0.000949 µM, first compound 0.1 µM
[3] = second compound 0.003 µM, first compound 0.0316 µM
[4] = second compound 0.003 µM, first compound 0.1 µM
[5] = second compound 0.00949 µM, first compound 0.0316 µM
[6] = second compound 0.00949 µM, first compound 0.1 µM
[7] = second compound 0.03 µM, first compound 0.0316 µM
[8] = second compound 0.03 µM, first compound 0.1 µM
[9] = second compound 0.0949 µM, first compound 0.0316 µM
[10] = second compound 0.0949 µM, first compound 0.1 µM
[11] = second compound 0.3 µM, first compound 0.0316 µM
[12] = second compound 0.3 µM, first compound 0.1 µM
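Note: spheroids exposed to compounds for 7 days before viability read.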

CC(C)n1nc(-c2ccc3oc(N)nc3c2)c2c(N)ncnc21 + CCn1c(-c2cc(N3CCN(C)CC3)cnc2C(C)OC)c2c3cc(ccc31)-c1csc(n1)CC(NC(=O)C1CC1C)C(=O)N1CCCC(N1)C(=O)OCC(C)(C)C2
active: viability, T/C [6] 5.22% | viability, T/C (second compound 0.03 µM, first compound 0.00316 µM) 9.71% | viability, T/C (second compound 0.03 µM, first compound 0.01 µM) 6.52% | viability, T/C [7] 4.01% | viability, T/C [8] 2.6% | viability, T/C (second compound 0.0949 µM, first compound 0.000316 µM) 7.46% | viability, T/C (second compound 0.0949 µM, first compound 0.001 µM) 6.37% | viability, T/C (second compound 0.0949 µM, first compound 0.00316 µM) 5.35% | viability, T/C (second compound 0.0949 µM, first compound 0.01 µM) 3.33% | viability, T/C [9] 2.32% | viability, T/C [10] 1.41% | viability, T/C (second compound 0.3 µM, first compound 0.000316 µM) 5.75% | viability, T/C (second compound 0.3 µM, first compound 0.001 µM) 5.69% | viability, T/C (second compound 0.3 µM, first compound 0.00316 µM) 4.23% | viability, T/C (second compound 0.3 µM, first compound 0.01 µM) 2.81% | viability, T/C [11] 2.02% | viability, T/C [12] 1.43%
7.33: pIC50 (second compound 0.000949 µM)
inactive: viability, T/C (second compound 0.000949 µM, first compound 0.000316 µM) 104% | viability, T/C (second compound 0.000949 µM, first compound 0.001 µM) 109% | viability, T/C (second compound 0.000949 µM, first compound 0.00316 µM) 87.9% | viability, T/C (second compound 0.000949 µM, first compound 0.01 µM) 69.8% | viability, T/C [1] 62.2% | viability, T/C [2] 34.8% | viability, T/C (second compound 0.003 µM, first compound 0.000316 µM) 106% | viability, T/C (second compound 0.003 µM, first compound 0.001 µM) 104% | viability, T/C (second compound 0.003 µM, first compound 0.00316 µM) 88.3% | viability, T/C (second compound 0.003 µM, first compound 0.01 µM) 72.9% | viability, T/C [3] 46.7% | viability, T/C [4] 20.1% | viability, T/C (second compound 0.00949 µM, first compound 0.000316 µM) 49.4% | viability, T/C (second compound 0.00949 µM, first compound 0.001 µM) 47.4% | viability, T/C (second compound 0.00949 µM, first compound 0.00316 µM) 37.7% | viability, T/C (second compound 0.00949 µM, first compound 0.01 µM) 30.8% | viability, T/C [5] 12.7% | viability, T/C (second compound 0.03 µM, first compound 0.000316 µM) 14.8% | viability, T/C (second compound 0.03 µM, first compound 0.001 µM) 12.5%
7.56: pIC50 (second compound 0.003 µM)
> 9.50: pIC50 (second compound 0.00949 µM) | pIC50 (second compound 0.03 µM) | pIC50 (second compound 0.0949 µM) | pIC50 (second compound 0.3 µM)

CC(Nc1ccc2c(c1)OCCn1cc(N3C(=O)OCC3C(F)F)nc1-2)C(N)=O (stereo unspecified)
inactive: viability, T/C (compound 0.0316 µM) 102% (2×) and 76.1% and 98.5% | viability, T/C (compound 0.1 µM) 91.8% [middle of 4 runs] | viability, T/C (compound 0.316 µM) 69.5% [middle of 4 runs] | viability, T/C (compound 1 µM) 51.2% [middle of 4 runs] | viability, T/C (compound 10 µM) 34.3% [middle of 4 runs]

Cc1nc(N2CCC3(CC2)COC(C)C3N)c(CO)nc1Sc1ccnc(N)c1Cl (stereo unspecified) + CCn1c(-c2cc(N3CCN(C)CC3)cnc2C(C)OC)c2c3cc(ccc31)-c1csc(n1)CC(NC(=O)C1CC1C)C(=O)N1CCCC(N1)C(=O)OCC(C)(C)C2
> 7.50: pIC50 (second compound 0.00949 µM) | pIC50 (second compound 0.03 µM) | pIC50 (second compound 0.0949 µM) | pIC50 (second compound 0.3 µM)
6.21: pIC50 (second compound 0.000949 µM)
6.89: pIC50 (second compound 0.003 µM)
inactive: viability, T/C [1] 94.6% | viability, T/C [2] 110% | viability, T/C (second compound 0.000949 µM, first compound 0.316 µM) 76.3% | viability, T/C (second compound 0.000949 µM, first compound 1 µM) 30.1% | viability, T/C [3] 91.2% | viability, T/C [4] 58.7% | viability, T/C (second compound 0.003 µM, first compound 0.316 µM) 18.3% | viability, T/C [5] 27.1% | viability, T/C [6] 13.6%
active: viability, T/C (second compound 0.000949 µM, first compound 3.16 µM) 9.66% | viability, T/C (second compound 0.000949 µM, first compound 10 µM) 5.87% | viability, T/C (second compound 0.003 µM, first compound 1 µM) 8.06% | viability, T/C (second compound 0.003 µM, first compound 3.16 µM) 4.43% | viability, T/C (second compound 0.003 µM, first compound 10 µM) 2.87% | viability, T/C (second compound 0.00949 µM, first compound 0.316 µM) 6.12% | viability, T/C (second compound 0.00949 µM, first compound 1 µM) 4.02% | viability, T/C (second compound 0.00949 µM, first compound 3.16 µM) 3.42% | viability, T/C (second compound 0.00949 µM, first compound 10 µM) 2.67% | viability, T/C [7] 9.41% | viability, T/C [8] 7.94% | viability, T/C (second compound 0.03 µM, first compound 0.316 µM) 4.32% | viability, T/C (second compound 0.03 µM, first compound 1 µM) 3.62% | viability, T/C (second compound 0.03 µM, first compound 3.16 µM) 2.89% | viability, T/C (second compound 0.03 µM, first compound 10 µM) 2.28% | viability, T/C [9] 5.71% | viability, T/C [10] 4.9% | viability, T/C (second compound 0.0949 µM, first compound 0.316 µM) 3.65% | viability, T/C (second compound 0.0949 µM, first compound 1 µM) 3.26% | viability, T/C (second compound 0.0949 µM, first compound 3.16 µM) 2.76% | viability, T/C (second compound 0.0949 µM, first compound 10 µM) 1.95% | viability, T/C [11] 4.72% | viability, T/C [12] 4.35% | viability, T/C (second compound 0.3 µM, first compound 0.316 µM) 3.45% | viability, T/C (second compound 0.3 µM, first compound 1 µM) 3.1% | viability, T/C (second compound 0.3 µM, first compound 3.16 µM) 2.4% | viability, T/C (second compound 0.3 µM, first compound 10 µM) 1.92%

CC(C)n1nc(-c2ccc3oc(N)nc3c2)c2c(N)ncnc21 + C=CC(=O)N1CCN(c2nc(OCC3CCCN3C)nc3c(F)c(-c4nc(N)cc(C)c4C(F)(F)F)c(Cl)cc23)C(C)C1
7.02: pIC50 (second compound 0.316 µM)
7.01: pIC50 (second compound 0.1 µM)
< 7.00: pIC50 (second compound 0.01 µM) | pIC50 (second compound 0.0316 µM)
7.10: pIC50 (second compound 1 µM)
7.07: pIC50 (second compound 0.00316 µM)
inactive: viability, T/C (second compound 0.00316 µM, first compound 0.000316 µM) 109% | viability, T/C (second compound 0.00316 µM, first compound 0.001 µM) 92.1% | viability, T/C (second compound 0.00316 µM, first compound 0.00316 µM) 91.1% | viability, T/C (second compound 0.00316 µM, first compound 0.01 µM) 80.4% | viability, T/C (second compound 0.00316 µM, first compound 0.0316 µM) 90.1% | viability, T/C (second compound 0.00316 µM, first compound 0.1 µM) 43.5% | viability, T/C (second compound 0.01 µM, first compound 0.000316 µM) 97.6% | viability, T/C (second compound 0.01 µM, first compound 0.001 µM) 96.7% | viability, T/C (second compound 0.01 µM, first compound 0.00316 µM) 82.5% | viability, T/C (second compound 0.01 µM, first compound 0.01 µM) 106% | viability, T/C (second compound 0.01 µM, first compound 0.0316 µM) 77.7% | viability, T/C (second compound 0.01 µM, first compound 0.1 µM) 51.4% | viability, T/C (second compound 0.0316 µM, first compound 0.000316 µM) 95.1% | viability, T/C (second compound 0.0316 µM, first compound 0.001 µM) 104% | viability, T/C (second compound 0.0316 µM, first compound 0.00316 µM) 80.3% | viability, T/C (second compound 0.0316 µM, first compound 0.01 µM) 123% | viability, T/C (second compound 0.0316 µM, first compound 0.0316 µM) 89.8% | viability, T/C (second compound 0.0316 µM, first compound 0.1 µM) 56.8% | viability, T/C (second compound 0.1 µM, first compound 0.000316 µM) 94.5% | viability, T/C (second compound 0.1 µM, first compound 0.001 µM) 106% | viability, T/C (second compound 0.1 µM, first compound 0.00316 µM) 108% | viability, T/C (second compound 0.1 µM, first compound 0.01 µM) 91% | viability, T/C (second compound 0.1 µM, first compound 0.0316 µM) 90.8% | viability, T/C (second compound 0.1 µM, first compound 0.1 µM) 48.5% | viability, T/C (second compound 0.316 µM, first compound 0.000316 µM) 92.5% | viability, T/C (second compound 0.316 µM, first compound 0.001 µM) 106% | viability, T/C (second compound 0.316 µM, first compound 0.00316 µM) 94% | viability, T/C (second compound 0.316 µM, first compound 0.01 µM) 93.9% | viability, T/C (second compound 0.316 µM, first compound 0.0316 µM) 97.4% | viability, T/C (second compound 0.316 µM, first compound 0.1 µM) 48% | viability, T/C (second compound 1 µM, first compound 0.000316 µM) 109% | viability, T/C (second compound 1 µM, first compound 0.001 µM) 101% | viability, T/C (second compound 1 µM, first compound 0.00316 µM) 84.6% | viability, T/C (second compound 1 µM, first compound 0.01 µM) 113% | viability, T/C (second compound 1 µM, first compound 0.0316 µM) 82.5% | viability, T/C (second compound 1 µM, first compound 0.1 µM) 42.5%
